Results on 9 compounds are retold here after US11986471B2, “Compounds and methods of use” (Tango Therapeutics, Inc., priority 2018, dated 2024).

One test concerns HAP1 MTAP-intact. Kind of test: SDMA in-cell western assay, HAP1 MTAP-intact cell line. The conditions noted are these: Homo sapiens. Format: cell-based. In outline: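 IC50 values come from SDMA in-cell western staining of HAP1 cells. The MTAP-intact line carries endogenous MTAP, while its MTAP-deleted counterpart lacks MTAP entirely. A selectivity ratio of at least 3 fold marks a compound as MTAP-selective.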

Another test concerns HAP1 MTAP-deleted. Kind of test: SDMA in-cell western assay, HAP1 MTAP-deleted cell line. Format: cell-based. Particulars: for IC50: Homo sapiens, HAP1 MTAP-deleted cell line; for MTAP Intact/Deleted Ratio: IC50 ratio HAP1 MTAP-intact / HAP1 MTAP-deleted. In outline: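 Readout is cellular SDMA signal by in-cell western, with IC50 values derived from it. The cells are MTAP-null HAP1, matched to an isogenic MTAP-intact HAP1 line.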

Test [1] deals with T1, PRMT5 (Homo sapiens, UniProt O14744).
T1 construct: purchased Viva (custom protein)
T1 sequence (O14744 whole entry): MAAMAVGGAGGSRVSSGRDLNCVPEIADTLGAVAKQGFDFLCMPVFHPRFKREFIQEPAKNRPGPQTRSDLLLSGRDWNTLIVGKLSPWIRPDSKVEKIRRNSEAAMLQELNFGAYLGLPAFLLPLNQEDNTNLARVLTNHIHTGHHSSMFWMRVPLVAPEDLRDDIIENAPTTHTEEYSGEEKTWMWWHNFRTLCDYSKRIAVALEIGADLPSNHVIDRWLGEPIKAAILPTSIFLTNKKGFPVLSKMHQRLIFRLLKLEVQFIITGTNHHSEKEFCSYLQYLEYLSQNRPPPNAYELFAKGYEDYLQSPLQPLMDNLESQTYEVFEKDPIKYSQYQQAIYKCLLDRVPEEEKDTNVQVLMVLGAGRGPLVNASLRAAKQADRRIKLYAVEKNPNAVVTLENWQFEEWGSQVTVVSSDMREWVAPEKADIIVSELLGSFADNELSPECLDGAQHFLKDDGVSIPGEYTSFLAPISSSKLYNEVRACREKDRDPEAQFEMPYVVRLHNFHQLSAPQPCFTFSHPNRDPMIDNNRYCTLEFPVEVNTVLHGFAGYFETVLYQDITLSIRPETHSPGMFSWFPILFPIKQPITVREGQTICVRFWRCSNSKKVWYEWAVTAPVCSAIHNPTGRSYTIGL
T1 sequence (Q9BQA1 whole entry partner): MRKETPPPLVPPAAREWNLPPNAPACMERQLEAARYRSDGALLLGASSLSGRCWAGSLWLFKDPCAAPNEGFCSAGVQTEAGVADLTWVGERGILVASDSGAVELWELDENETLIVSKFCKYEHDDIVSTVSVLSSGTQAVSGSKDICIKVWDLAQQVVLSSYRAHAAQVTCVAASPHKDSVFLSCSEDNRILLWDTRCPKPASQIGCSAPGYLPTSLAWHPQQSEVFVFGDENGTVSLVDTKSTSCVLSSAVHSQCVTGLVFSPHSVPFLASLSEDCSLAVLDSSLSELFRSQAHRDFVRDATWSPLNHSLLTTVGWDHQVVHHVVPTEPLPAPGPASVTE
The test can be described thus: PRMT5 IC50 assay with no cofactor. Format: biochemical. In outline:
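Human PRMT5 inhibition, IC50 in μM; cofactor varied (SAM / MTA / none).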

Test [2] concerns the target T1, PRMT5. The test can be described thus: PRMT5 IC50 assay in the presence of SAM as cofactor. Format: biochemical. In outline: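 IC50 values were measured against human PRMT5 with SAM, with MTA, or with no cofactor. Ki was derived from IC50 as Ki=IC50/1.5 with SAM and Ki=IC50/13.5 with MTA, and the Ki(SAM)/Ki(MTA) ratio was then taken.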
The target of test [3] is T1, PRMT5. Kind of test: PRMT5 IC50 assay in the presence of MTA as cofactor. Format: biochemical. Particulars: for IC50: PRMT5, MTA as cofactor. In outline:
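For the SAM-containing format, dividing IC50 by 1.5 yields Ki; for the MTA-containing format the divisor is 13.5. A third format without cofactor gives IC50 alone.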

Setting [4] is: ratio between Ki in the presence of SAM and Ki in the presence of MTA.
[5] abbreviates: ratio between the Ki in the presence of SAM and the Ki in the presence of MTA.

Each structure is given as a SMILES string.

As a reminder, the IC50 is the concentration needed to halve the response being measured. For the compound `CCC(=O)N1CCN(c2nc(NC3COC3)cc(C(=O)NC[C@H](O)CN3CCc4cc(OCc5ocnc5C)ccc4C3)n2)CC1` [Compound 409, N-[(2S)-2-hydroxy-3-{6-[(4-methyl-1,3-oxazol-5-yl)methoxy]-1,2,3,4-tetrahydroisoquinolin-2-yl}propyl]-6-[(oxetan-3-yl)amino]-2-(4-propanoylpiperazin-1-yl)pyrimidine-4-carboxamide], the 50% inhibitory concentration (IC50) with HAP1 MTAP-intact is at least 10 µM; with HAP1 MTAP-deleted it was 1 to 10 µM; on PRMT5 [1] (read-out: No Co-factor IC50), 0.5 to 5 µM; at PRMT5 [2] it was 0.05 to 0.5 µM; on PRMT5 [3], 0.05 to 0.5 µM. In the test on HAP1 MTAP-deleted, the “MTAP Intact/Deleted Ratio” value is “B* (an IC50 ratio greater than or equal to 3 fold but lower than 10 fold between the IC50 in the HAP1 MTAP-intact cell line and the HAP1 MTAP-deleted cell line)”. At PRMT5 [3] (setting [4]), the “SAM/MTA Ratio” value is “A (a Ki ratio greater than or equal to 10 fold between the Ki in the presence of SAM and the Ki in the presence of MTA)”.
With `Cc1c(OCc2cnco2)ccc2c1CCN(C[C@@H](O)CNC(=O)c1cccc(NC3COC3)c1)C2` [Compound 424, N-[(2S)-2-hydroxy-3-{5-methyl-6-[(1,3-oxazol-5-yl)methoxy]-1,2,3,4-tetrahydroisoquinolin-2-yl}propyl]-3-[(oxetan-3-yl)amino]benzamide], the half-maximal inhibitory concentration (IC50) in the test on HAP1 MTAP-intact was at least 10 µM; in the test on HAP1 MTAP-deleted, at least 10 µM; on PRMT5 [1] (read-out: No Co-factor IC50) it was at least 5 µM; on PRMT5 [2] it was 0.5 to 5 µM; on PRMT5 [3], 0.5 to 5 µM. Further, in the test on HAP1 MTAP-deleted, the “MTAP Intact/Deleted Ratio” value is “C* (an IC50 ratio of less than 3 fold between the IC50 in the HAP1 MTAP-intact cell line and the HAP1 MTAP-deleted cell line)”. In addition, on PRMT5 [3] (setting [4]), the “SAM/MTA Ratio” value is “A (a Ki ratio greater than or equal to 10 fold between the Ki in the presence of SAM and the Ki in the presence of MTA)”.
As for `CCN1CCN(c2nc(NC3COC3)cc(C(=O)NC[C@H](O)CN3CCc4c(ccc(OCc5cnco5)c4Cl)C3)n2)CC1` [Compound 324], the IC50 in the test on HAP1 MTAP-intact is at least 10 µM; in the test with HAP1 MTAP-deleted it was 1 to 10 µM; at PRMT5 [1] (read-out: No Co-factor IC50) it was 0.5 to 5 µM; on PRMT5 [2] it was 0.05 to 0.5 µM; at PRMT5 [3], 0.05 to 0.5 µM. Also, the “MTAP Intact/Deleted Ratio” value in the test with HAP1 MTAP-deleted was “C* (an IC50 ratio of less than 3 fold between the IC50 in the HAP1 MTAP-intact cell line and the HAP1 MTAP-deleted cell line)”. The “SAM/MTA Ratio” value at PRMT5 [3] (setting [4]) is “A (a Ki ratio greater than or equal to 10 fold between the Ki in the presence of SAM and the Ki in the presence of MTA)”.
With `CCN(C)c1nc(NC2COC2)cc(C(=O)NC[C@H](O)CN2CCc3c(ccc(OCc4ocnc4C)c3C)C2)n1` [Compound 477], the half-maximal inhibitory concentration (IC50) was at least 10 µM in the test on HAP1 MTAP-intact; 1 to 10 µM in the test on HAP1 MTAP-deleted; at least 5 µM against PRMT5 [1]; 0.05 to 0.5 µM at PRMT5 [2]; 0.05 to 0.5 µM on PRMT5 [3]. In the test with HAP1 MTAP-deleted, the “MTAP Intact/Deleted Ratio” value was “B* (an IC50 ratio greater than or equal to 3 fold but lower than 10 fold between the IC50 in the HAP1 MTAP-intact cell line and the HAP1 MTAP-deleted cell line)”. Further, the “SAM/MTA Ratio” value at PRMT5 [3] (setting [5]) is “A (a Ki ratio greater than or equal to 10 fold between the Ki in the presence of SAM and the Ki in the presence of MTA)”.
As for `Cc1ncoc1COc1ccc2c(c1C)CCN(C[C@@H](O)CNC(=O)c1ccc(OC3CCN(Cc4ccncc4)CC3)cc1)C2` [Compound 440, N-[(2S)-2-hydroxy-3-{5-methyl-6-[(4-methyl-1,3-oxazol-5-yl)methoxy]-1,2,3,4-tetrahydroisoquinolin-2-yl}propyl]-4-({1-[(pyridin-4-yl)methyl]piperidin-4-yl}oxy)benzamide], the IC50 in the test with HAP1 MTAP-intact was at least 10 µM; in the test with HAP1 MTAP-deleted, 1 to 10 µM; against PRMT5 [1] it was 0.5 to 5 µM; on PRMT5 [2] it was 0.05 to 0.5 µM; on PRMT5 [3], 0.05 to 0.5 µM. Further, the “MTAP Intact/Deleted Ratio” value with HAP1 MTAP-deleted was “B* (an IC50 ratio greater than or equal to 3 fold but lower than 10 fold between the IC50 in the HAP1 MTAP-intact cell line and the HAP1 MTAP-deleted cell line)”. Moreover, on PRMT5 [3] (setting [5]), the “SAM/MTA Ratio” value is “A (a Ki ratio greater than or equal to 10 fold between the Ki in the presence of SAM and the Ki in the presence of MTA)”.
Turning to `Cc1c(OCc2cnco2)ccc2c1CCN(C[C@@H](O)CNC(=O)c1cccc(NC3CCC3)c1)C2` [Compound 351, 3-(cyclobutylamino)-N-[(2S)-2-hydroxy-3-{5-methyl-6-[(1,3-oxazol-5-yl)methoxy]-1,2,3,4-tetrahydroisoquinolin-2-yl}propyl]benzamide], the IC50 in the test with HAP1 MTAP-intact is at least 10 µM; with HAP1 MTAP-deleted, at least 10 µM; on PRMT5 [1] (read-out: No Co-factor IC50), at least 5 µM; at PRMT5 [2], 0.5 to 5 µM; on PRMT5 [3] it was 0.05 to 0.5 µM. Besides, the “MTAP Intact/Deleted Ratio” value in the test with HAP1 MTAP-deleted is “C* (an IC50 ratio of less than 3 fold between the IC50 in the HAP1 MTAP-intact cell line and the HAP1 MTAP-deleted cell line)”. The “SAM/MTA Ratio” value at PRMT5 [3] (setting [4]) was “A (a Ki ratio greater than or equal to 10 fold between the Ki in the presence of SAM and the Ki in the presence of MTA)”.
As for `CC(C)C(=O)N1CC(Nc2cc(C(=O)NC[C@H](O)CN3CCc4cc(OCc5cnco5)ccc4C3)ccn2)C1` [Compound 479, N-[(2S)-2-hydroxy-3-[6-(oxazol-5-ylmethoxy)-3,4-dihydro-1H-isoquinolin-2-yl]propyl]-2-[[1-(2-methylpropanoyl)azetidin-3-yl]amino]pyridine-4-carboxamide], the IC50 in the test with HAP1 MTAP-intact is 1 to 10 µM; with HAP1 MTAP-deleted, 1 to 10 µM; against PRMT5 [1], at least 5 µM; at PRMT5 [2], 0.5 to 5 µM; at PRMT5 [3], 0.05 to 0.5 µM. Also, the “MTAP Intact/Deleted Ratio” value with HAP1 MTAP-deleted is “C* (an IC50 ratio of less than 3 fold between the IC50 in the HAP1 MTAP-intact cell line and the HAP1 MTAP-deleted cell line)”. On PRMT5 [3] (setting [5]), the “SAM/MTA Ratio” value was “A (a Ki ratio greater than or equal to 10 fold between the Ki in the presence of SAM and the Ki in the presence of MTA)”.
With `CC(=O)N1CC(Nc2cc(C(=O)NC[C@H](O)CN3CCc4cc(OCc5cnco5)ccc4C3)nc(C(C)C)n2)C1` [Compound 349, (S)-6-((1-acetylazetidin-3-yl)amino)-N-(2-hydroxy-3-(6-(oxazol-5-ylmethoxy)-3,4-dihydroisoquinolin-2(1H)-yl)propyl)-2-isopropylpyrimidine-4-carboxamide], the IC50 is below 1 µM in the test on HAP1 MTAP-intact; below 1 µM with HAP1 MTAP-deleted; 0.5 to 5 µM at PRMT5 [1] (read-out: No Co-factor IC50); 0.05 to 0.5 µM on PRMT5 [2]; 0.05 to 0.5 µM at PRMT5 [3]. Further, the “MTAP Intact/Deleted Ratio” value with HAP1 MTAP-deleted is “C* (an IC50 ratio of less than 3 fold between the IC50 in the HAP1 MTAP-intact cell line and the HAP1 MTAP-deleted cell line)”. Also, at PRMT5 [3] (setting [4]), the “SAM/MTA Ratio” value is “A (a Ki ratio greater than or equal to 10 fold between the Ki in the presence of SAM and the Ki in the presence of MTA)”.
Regarding `Cc1ncoc1COc1ccc2c(c1)CCN(C[C@@H](O)CNC(=O)c1cc(NC3COC3)nc(N3CCN(C)CC3)n1)C2` [Compound 387], the IC50 in the test with HAP1 MTAP-intact is 1 to 10 µM; with HAP1 MTAP-deleted it was below 1 µM; at PRMT5 [1] (read-out: No Co-factor IC50) it was 0.5 to 5 µM; on PRMT5 [2], 0.05 to 0.5 µM; on PRMT5 [3], 0.05 to 0.5 µM. Also, the “MTAP Intact/Deleted Ratio” value with HAP1 MTAP-deleted is “B* (an IC50 ratio greater than or equal to 3 fold but lower than 10 fold between the IC50 in the HAP1 MTAP-intact cell line and the HAP1 MTAP-deleted cell line)”. Moreover, the “SAM/MTA Ratio” value at PRMT5 [3] (setting [4]) is “A (a Ki ratio greater than or equal to 10 fold between the Ki in the presence of SAM and the Ki in the presence of MTA)”.
